Twelve molecules from patent publication US4714764A, “2-(4-pyridylaminomethyl)-benzimidazole derivatives having antiviral activity” (Maruishi Seiyaku Kabushiki Kaisha, priority 1985, dated 1987) can be followed below.

Where a name gives a salt, the structure may show the parent alone.

Data set [1] in a line: Morphological cytotoxicity in LLC-MK2 cells. The conditions noted are these: monkey, 33° C., examined at 48, 72, 96 and 120 h, read-out: CD50 (lowest concentration that caused morphological cytotoxicity by 50% or more). In kind it is cell-based.
Another data set concerns enterovirus type 70. Nature of the data set: Inhibition of virus cytopathogenic effect (CPE) in LLC-MK2 cells. In kind it is cell-based. The conditions noted are these: for CI (chemotherapeutic index): CI=CD50 /ID50; for IC50: Enterovirus D, enterovirus type 70, 100-300 TCID50, LLC-MK2 cells, 33° C., examined at 48, 72, 96 and 120 h, read-out: IC50 (lowest concentration that reduced virus CPE by 50% or more). For orientation: Protection from cytopathic effect is a common read-out in antiviral testing.

On to `Cc1cc2nc(CNc3ccncc3)[nH]c2cc1C.Cl.Cl` [Compound XII, 2-(4-pyridylaminomethyl)-5,6-dimethylbenzimidazole dihydrochloride], for which the CC50 in data set [1] stood at 707 µg/mL. In the data set with enterovirus type 70, the “CI (chemotherapeutic index)” value is listed as 239 and the IC50 was 3 µg/mL.

For `Cc1ccc2[nH]c(CNc3ccncc3)nc2c1` [Compound V, 2-(4-pyridylaminomethyl)-5(6)-methylbenzimidazole dihydrochloride], the CC50 in data set [1] stood at 562 µg/mL. In the data set with enterovirus type 70, the “CI (chemotherapeutic index)” value is 311 and the IC50 is 1.8 µg/mL.

Take `Nc1ccc2[nH]c(CNc3ccncc3)nc2c1` [Compound VIII, 2-(4-pyridylaminomethyl)-5(6)-aminobenzimidazole trihydrochloride]: the CC50 in data set [1] was over 100 µg/mL. Moreover, the IC50 in the data set on enterovirus type 70 is over 100 µg/mL.

With `FC(F)(F)c1ccc2[nH]c(CNc3ccncc3)nc2c1` [Compound IX, 2-(4-pyridylaminomethyl)-5(6)-trifluoromethylbenzimidazole dihydrochloride], the CC50 in data set [1] is 354 µg/mL. In the data set with enterovirus type 70, the “CI (chemotherapeutic index)” value is 64 and the IC50 came to 5.5 µg/mL.

Take `Cc1cccc2[nH]c(CNc3ccncc3)nc12` [Compound XI, 2-(4-pyridylaminomethyl)-4(7)-methylbenzimidazole dihydrochloride]: the CC50 in data set [1] was over 100 µg/mL. The IC50 with enterovirus type 70 is over 100 µg/mL.

As for `O=[N+]([O-])c1ccc2[nH]c(CNc3ccncc3)nc2c1` [Compound VI, 2-(4-pyridylaminomethyl)-5(6)-nitrobenzimidazole dihydrochloride], the CC50 in data set [1] is over 100 µg/mL. Further, the IC50 with enterovirus type 70 was over 100 µg/mL.

Regarding `COc1ccc2[nH]c(CNc3ccncc3)nc2c1` [Compound IV, 2-(4-pyridylaminomethyl)-5(6)-methoxybenzimidazole dihydrochloride], the CC50 in data set [1] amounted to 1770 µg/mL. In the data set on enterovirus type 70, the “CI (chemotherapeutic index)” value is 64 and the IC50 amounted to 27.6 µg/mL.

For `Clc1ccc2[nH]c(CNc3ccncc3)nc2c1` [Compound II, 2-(4-pyridylaminomethyl)-5(6)-chlorobenzimidazole dihydrochloride], the CC50 in data set [1] turned out to be 178 µg/mL. In the data set on enterovirus type 70, the “CI (chemotherapeutic index)” value stood at 99 and the IC50 amounted to 1.8 µg/mL.

In the case of `Cl.Cl.Clc1cc2nc(CNc3ccncc3)[nH]c2cc1Cl` [Compound VII, 2-(4-pyridylaminomethyl)-5,6-dichlorobenzimidazole dihydrochloride], the CC50 in data set [1] turned out to be 177 µg/mL. In addition, in the data set on enterovirus type 70, the “CI (chemotherapeutic index)” value is listed as 126 and the IC50 was found to be 1.4 µg/mL.

As for `Cl.Cl.c1ccc2[nH]c(CNc3ccncc3)nc2c1` [Compound I, 2-(4-pyridylaminomethyl) benzimidazole dihydrochloride], the CC50 in data set [1] is 562 µg/mL. Besides, in the data set on enterovirus type 70, the “CI (chemotherapeutic index)” value is given as 152 and the IC50 came to 3.7 µg/mL.

For the molecule `CCc1ccc2[nH]c(CNc3ccncc3)nc2c1` [Compound X, 2-(4-pyridylaminomethyl)-5(6)-ethylbenzimidazole dihydrochloride], the CC50 in data set [1] came out at 354 µg/mL. In addition, in the data set on enterovirus type 70, the “CI (chemotherapeutic index)” value was determined as 362 and the IC50 came to 0.98 µg/mL.

With `O=C(c1ccccc1)c1ccc2[nH]c(CNc3ccncc3)nc2c1` [Compound III, 2-(4-pyridylaminomethyl)-5(6)-benzoylbenzimidazole dihydrochloride], the CC50 in data set [1] is over 100 µg/mL. Besides, the IC50 in the data set with enterovirus type 70 was over 100 µg/mL.
